Data: patent EP4759810A1, “PROTAC TARGETING BCL-XL PROTEIN AND USE THEREOF” (BEIJING SUNCELL BIO-MEDICAL CO., LTD., priority 2023, dated 2025)
Read-outs that look alike come from different tables or passages of the source.

Experiments:
[1] = system: Molt-4 cells; test: Molt-4 cell killing activity test (CCK-8); assay type: cell-based; settings: for killing Molt-4 cells at different concentrations (Figure 1), in words: 0.001-3 µM, comparison with control molecules; for EC50: Homo sapiens
Outline: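 Molt-4 cells in RPMI-1640 with 10% FBS were exposed to compounds at 0.001–3 µM final, triplicate wells, for three days at 37°C. Viability was read by CCK-8 absorbance at 450 nm after 0.5–2 h, expressed relative to blank control.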

[2] = system: Molt-4 cells; test: Detection of E3 enzyme-dependence: Molt-4 cell killing with or without pomalidomide (CCK-8); assay type: cell-based; settings: 10 µM pomalidomide, Figure 2
Description: Actively growing and healthy Molt-4 cells were collected, centrifuged at 1000 rpm for 5 minutes, and after removing the supernatant, the cells were resuspended in fresh RPMI-1640 medium containing 10% fetal bovine serum. Cell counting was then performed. The cell density was adjusted to 120,000 cells per milliliter, and 100 µL of the cell suspension was added to each well of a 96-well transparent cell culture plate. It was noted that the edge wells of the 96-well plate were not used for testing, and 300 µL of PBS alone was added to these wells to reduce medium evaporation.
Molt-4 cells were plated in duplicate according to the number of the tested small molecules, so as to test the effects with and without the addition of pomalidomide (a competitive ligand specific for E3 ligase), in which one half of the parallel cells was added 10 µM pomalidomide. A series of small molecule concentration gradients (0.001, 0.003, 0.01, 0.03, 0.1, 0.3, 1, and 3 µM) were pre-set, and a series of 2× drug dilutions for the above concentrated were prepared in DMEM medium containing 10% fetal bovine serum. 100 µL of the above DMEM medium containing the gradient concentrations of the drug was added to 96-well plates that have been pre-plated with cells, so that the final drug concentration in each well was the pre-set series of concentrations respectively. Three replicate wells were used for each test drug concentration. The 96-well plates were placed back in a 37°C incubator, and the cell viability was detected after three days.
Cell viability after drug treatment was detected by using the CCK-8 method: three days after adding the drugs, the plates were taken out, and the supernatant was discarded. Then, 100 µL of pre-prepared CCK-8 working solution was added to each well. The CCK-8 working solution was obtained through diluting a CCK-8 stock solution (C0041, Beyotime) by 10-fold volumn with a serum-free DMEM culture medium. The 96-well plates with the added CCK-8 working solution were placed back in the 37°C incubator and incubated for 0.5-2 hours. The plates were then taken out, and the absorbance value (OD value) of each well was measured at a wavelength of 450 nm. The cell viability in each experimental group was calculated according to the following formula: Relative cell viability (%) = (Blank control group - Experimental group) / Blank control group × 100%.

[3] = system: HEF cells; test: Senescent cell killing activity test, HEF cell model (CCK-8); assay type: cell-based, human; settings: for toxicity on normal non-senescent HEF cells: higher concentration (25 µM)
Description: (§1) To avoid replication of the induced senescent cells, low-passage proliferating HEF cells (<10 passages), MRC5 cells (<6 passages), and BJ cells (<10 passages) were used as normal controls. For chemical drug induced senescence, HEF cells were treated with 10 µM etoposide (Selleck, S1225) for 36-48 hours, MRC5 cells were treated with 5 µM bleomycin (Selleck, S1225) for 72 hours, and BJ cells were treated with 10 µg/mL bleomycin for 72 hours. Three days after the treatment, the cells were subcultured in fresh culture medium at a 1:3 ratio for 72 hours before further analysis and use.
(§2) Non-senescent and induced-senescent HEF cells, non-senescent and induced-senescent MRC5 cells, and non-senescent and induced-senescent BJ cells were respectively digested with trypsin, and centrifuged at 1000 rpm for 5 minutes. Then, the supernatant was removed, and the cells were resuspended in fresh DMEM culture medium containing 10% fetal bovine serum for counting. The cell density was adjusted so that the non-senescent cell density was 4000 cells/100 µL and the senescent cell density was 7000 cells/100 µL. 100 µL of the cell suspension was added to each well of a 96-well transparent cell culture plate. It was noted that the edge wells of the 96-well plate were not used as testing wells, and 300 µL of PBS alone was added to these wells to reduce evaporation of the culture medium. The 96-well plates with the well-plated cells were placed back in a 37°C incubator for overnight culture until the cells adhered. On the next day, the small molecule compounds to be tested were prepared and added after the cells had adhered.
(§3) A series of small molecule concentration gradients (0.01, 0.03, 0.1, 0.3, 1, 3, 10, and 25 µM) were pre-set, and a series of 2× drug dilutions for the above concentrations were prepared in DMEM culture medium containing 10% fetal bovine serum. 100 µL of the above DMEM culture medium containing the gradient concentrations of the drug was added to each well of the 96-well plate that had been well-plated with cells, so that the final drug concentration in each well was the pre-set series of concentrations. Three replicate wells were used for each test drug concentration. The 96-well plates were placed back in a 37°C incubator, and cell viability was measured after three days.
(§4) Three days after adding the drug, the plates were taken out, and the supernatant was discarded. 100 µL of pre-prepared CCK-8 working solution was added to each well. The CCK-8 working solution was obtained through diluting a CCK-8 stock solution (C0041, Beyotime) with a serum-free DMEM culture medium by 10-fold volumn. The 96-well plates containing the CCK-8 working solution were placed back in the 37°C incubator and incubated for 0.5-2 hours. The plates were then taken out, and the absorbance value (OD value) of each well was measured at a wavelength of 450 nm. The cell viability in each experimental group was calculated according to the following formula: Relative cell viability (%) = (Blank control group - Experimental group) / Blank control group × 100%.

[4] = system: MRC5 cells; test: Senescent cell killing activity test, MRC5 cell model (CCK-8); assay type: cell-based, human; settings: for activity for killing senescent cells at lower concentrations compared to A-1331852: 0.01 µM and 0.03 µM; for selectivity for senescent cells: Figures 3G-3L
Description: as §1, §2, §3, §4

[5] = target: T1, Bcl-xL protein (Homo sapiens, UniProt Q07817); test: Degradation experiment of Bcl-xL target protein (Western blot in Molt-4 cells); assay type: cell-based; settings: 100 nM, 0, 2, 6, 16 h, GAPDH internal control, Figure 4
T1 construct: host or cells: Molt-4 cells
T1 sequence (Q07817 whole entry): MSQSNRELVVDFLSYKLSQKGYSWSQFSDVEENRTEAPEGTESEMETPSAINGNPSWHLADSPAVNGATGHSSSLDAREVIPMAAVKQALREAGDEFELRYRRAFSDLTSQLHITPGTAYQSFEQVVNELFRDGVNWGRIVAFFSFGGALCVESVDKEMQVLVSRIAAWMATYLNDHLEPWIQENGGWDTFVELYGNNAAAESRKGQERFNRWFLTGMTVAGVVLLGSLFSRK
Description: Actively growing and healthy Molt-4 cells were subcultured into a fresh RPMI-1640 medium containing 10% fetal bovine serum, and each PROTAC molecule was added thereto at a final concentration of 100 nM. After drug treatment for the specified times (0, 2, 6, and 16 hours), the cells were collected, the supernatant was discarded by centrifugation, and the cells were washed twice with pre-cooled PBS buffer. Total protein was extracted with a lysis buffer (Servicebio, G2002-100ML), and the protein concentration was normalized by using a BCA protein quantification kit (Servicebio, G2026). Protein samples were mixed with a protein-loading buffer and incubated at 95°C for 5 minutes. Western blotting experiments were performed by using the following antibodies: Bcl-xL (Abcam, catalog number ab32370), diluted at 1:500; GAPDH antibody (Servicebio, catalog number GB15004), diluted at 1:1000; and horseradish peroxidase-conjugated goat anti-rabbit secondary antibody (Servicebio, catalog number GB23303), diluted at 1:5000.

[6] = system: platelets; test: In vivo platelet toxicity test in mice; settings: intraperitoneal
Description: The in vivo platelet toxicity test was performed by using 5-6 week old female C57BL/6J mice. The C57BL/6J mice were purchased from Beijing Vital River Laboratory Animal Technology Co., Ltd. and housed under specific pathogen-free (SPF) conditions, with a 12-hour light/12-hour dark cycle, and free access to food and water. […] Different doses of the molecules to be tested (e.g., 0.1, 0.5, 2.5 mg/kg or 2, 5, 20 mg/kg) were prepared in advance with the aforementioned vehicle, and administered to mice via intraperitoneal injection at a volume of 200 µL for each mouse. After administration was completed, approximately 50 µL of blood was collected from each mouse at different time points via the intra-canthus sampling method into EDTA anticoagulant tubes (RAM Scientific), then a routine analysis of blood was performed by using a hematology analyzer, and the platelets was counted.

[7] = system: BJ cells; test: Senescent cell killing activity test, BJ cell model (CCK-8); assay type: cell-based, human; settings: Figures 3M-3O; for killing effects for senescent cells: bleomycin-induced senescent skin-derived BJ cell model
Description: as §1, §2, §3, §4

[8] = Metabolic stability assay in liver microsomes (human); assay type: in vitro ADME
Description: (§5) The metabolic reaction of compounds in liver microsome was performed in a system with a total volume of 400 µL, and the following steps below were sequentially performed for the reaction and detection: 1) 200 µL of phosphate buffer (200 mM), 106 µL of sterile ultrapure water, and 40 µL of magnesium chloride solution (50 mM) were added to each detection tube to prepare a reaction working solution. 2) Two reaction systems with or without adding NADPH were prepared for each compound to be tested. For the reaction system with adding NADPH: 10 µL of liver microsomes (20 mg/mL) and 40 µL of NADPH (10 mM) were added to the above working solution; for the reaction system without adding NADPH: 10 µL of liver microsomes (20 mg/mL) and 40 µL of sterile ultrapure water were added to the above working solution. The final concentration of liver microsomes in both reaction systems was 0.5 mg/mL. 3) 4 µL of the compound to be tested ([…]) was added to each reaction tube, resulting in a final concentration of 1 µM for the compound in the reaction system. The detection tubes were placed at 37°C for reaction. 4) 50 µL samples were taken from each detection tube at 0, 15, 30, 45, and 60 minutes after adding the compound. The reaction was terminated by adding cold acetonitrile containing IS (100 nM alprazolam, 200 nM labetalol, 200 nM caffeine, and 2 µM ketoprofen) in a 4× volume. The samples were centrifuged at 3220 g for 40 minutes, 100 µL of the supernatant was mixed with 100 µL of ultrapure water, and a sample was taken for LC-MS/MS analysis.
(§6) Calculation of in vitro liver microsomal metabolic half-life and in vitro metabolic intrinsic clearance rate: The LC-MS detection results were analyzed to obtain the percentage of the remaining amount of the tested compound relative to the initial amount at each time point. The natural logarithm of the remaining percentage was linearly fitted against the incubation time.

[9] = Metabolic stability assay in liver microsomes (mouse); assay type: in vitro ADME
Description: as §5, §6

[10] = 72 h, Molt-4 cells, three days, CCK-8, read-out: EC50 (Molt-4)
[11] = Bcl-xL-positive Molt-4 cells, read-out: cellular activity / killing activity (Molt-4 cells)
[12] = human liver microsomes 0.5 mg/mL, 1 µM compound, 37°C
[13] = mouse liver microsomes 0.5 mg/mL, 1 µM compound, 37°C

Row | SMILES | killing Molt-4 cells at different concentrations (Figure 1), in words [1] | EC50 [1, 10] [nM] | EC50 [1, 11] [nM] | cell killing activity after addition of pomalidomide (+poma) compared to without (-poma) [2] | toxicity on normal non-senescent HEF cells [3] | activity for killing senescent cells at lower concentrations compared to A-1331852 [4] | selectivity for senescent cells [4] | degradation of the Bcl-xL protein [5] | killing effects for senescent cells [7] | killing effect for the normal early-passage BJ cells [7] | further results
1 | O=C1CCN(c2ccc(N3CCN(CC#Cc4ccc(OCCCc5ccc(N6CCc7cccc(C(=O)Nc8nc9ccccc9s8)c7C6)nc5C(=O)O)c(F)c4)CC3)cc2)C(=O)N1 [APQ9] | comparable to A-1331852 | < 10 | < 10 | significantly reduced cell killing activity | no toxicity on normal non-senescent HEF cells | superior to that of A-1331852 | better selectivity for senescent cells | had the ability to degrade the Bcl-xL protein | – | – | activity for killing senescent cells at lower concentrations compared to A-1331852 ([3]; HEF cell model, 0.01 µM and 0.03 µM): better activity for killing senescent cells at lower concentrations; killing senescent HEF cells ([3]; etoposide-induced senescent vs normal HEF cells, Figures 3A-3F): efficiently and selectively kill senescent HEF cells; platelet number in peripheral blood, in words ([6]; 5 mg/kg, Figure 5B): slightly decrease in platelet number
2 | O=C1CCN(c2ccc(N3CCC(CN4CCN(CC#Cc5ccc(OCCCc6ccc(N7CCc8cccc(C(=O)Nc9nc%10ccccc%10s9)c8C7)nc6C(=O)O)c(F)c5)CC4)CC3)cc2F)C(=O)N1 [APQ10-3] | comparable to A-1331852 | < 10 | < 10 | – | – | – | – | – | highly selective and potent killing effects for senescent cells | without significant killing effect for the normal early-passage BJ cells | –
3 | O=C1CCN(c2ccc(N3CCN(CC#Cc4ccc(OCCCc5ccc(N6CCc7cccc(C(=O)Nc8nc9ccccc9s8)c7C6)nc5C(=O)O)c(F)c4)CC3)cc2F)C(=O)N1 [APQ902] | comparable to A-1331852 | < 10 | < 10 | significantly reduced cell killing activity | – | superior to that of A-1331852 | better selectivity for senescent cells | had the ability to degrade the Bcl-xL protein | highly selective and potent killing effects for senescent cells | without significant killing effect for the normal early-passage BJ cells | –
4 | Cc1c(-c2ccc(N3CCc4cccc(C(=O)Nc5nc6ccccc6s5)c4C3)nc2C(=O)O)cnn1CC12CC3CC(CC(C3)C1)C2 [Compound A-1331852, A-1331852, reference compound] | highest cellular activity in the test | < 10 | – | – | toxic killing effects on normal non-senescent HEF cells | – | – | – | – | – | clearance rate (metabolic clearance rate) ([8]; human liver microsomes): 53.07 µL/min/mg; Clint [8, 12]: 53.07 µL/min/mg protein; T1/2 [8, 12]: 26.12 min; clearance rate (metabolic clearance rate) ([9]; mouse liver microsomes): 18.43 µL/min/mg; Clint [9, 13]: 18.43 µL/min/mg protein; T1/2 [9, 13]: 75.21 min; toxicity on platelets ([6]; 0.5 mg/kg, Figure 5A): severe toxicity on platelets; platelet number in peripheral blood ([6]; 5 mg/kg, Figure 5B): below 100 × 10^9/L
